Source: patent US9029337B2, “Modulation of factor 7 expression” (Isis Pharmaceuticals, Inc., priority 2007, dated 2015)
e = 2'-O-(2-methoxyethyl) (MOE); d = 2'-deoxy (DNA)

Key:
Type in all cases: in vivo, mouse
platelet factor-4 (PF-4) = experiment: Thrombus formation by real-time RT-PCR quantification of PF-4 in the FeCl3 induced venous thrombosis model; conditions: Example 16, BALB/c mice, vena cava
[1] = system: intrinsic pathway of blood coagulation; experiment: Activated Partial Thromboplastin Time (aPTT) in platelet poor plasma of treated BALB/c mice
Method: (§1) Prothrombin Time (PT) and Activated Partial Thromboplastin Time (aPTT) were measured using platelet poor plasma (PPP) from mice treated with ISIS 403102. PT and aPTT values provided in Table 20 are reported as International Normalized Ratio (INR) values. INR values for PT and aPTT were determined by dividing the PT or aPTT value for the experimental group by the PT or aPTT for the PBS treated group. This ratio was then raised to the power of the International Sensitivity Index (ISI) of the tissue factor used.
as §1, with “in Table 22 are reported” for “in Table 20 are reported”, “experimental group (i.e. 50 mg/kg treatment with ISIS 403102) by the” for “experimental group by the”
as §1, with “in Table 24 are reported” for “in Table 20 are reported”, “experimental group (i.e. 50 mg/kg treatment with ISIS 403102) by the” for “experimental group by the”

murine Factor 7 mRNA [2] = experiment: Antisense inhibition of murine Factor 7 mRNA in liver of BALB/c mice, dose response
Method: BALB/c mice were treated with ISIS 403102 ([…], target site 11336, incorporated herein as SEQ ID NO: 161). BALB/c mice were injected subcutaneously with 5 mg/kg, 10 mg/kg, 25 mg/kg, or 50 mg/kg of ISIS 403102 twice a week for 3 weeks. A control group of mice was injected subcutaneously with PBS twice a week for 3 weeks. After the treatment period, whole liver was collected for RNA and protein analysis, and plasma was collected for clotting analysis (PT/aPTT).
RNA was extracted from liver tissue for real-time RT-PCR analysis of Factor 7. […] Results are presented as percent inhibition of Factor 7, relative to the control.

[3] = system: extrinsic pathway of blood coagulation; experiment: Prothrombin Time (PT) in platelet poor plasma of treated BALB/c mice
Method: as §1
as §1, with “in Table 22 are reported” for “in Table 20 are reported”, “experimental group (i.e. 50 mg/kg treatment with ISIS 403102) by the” for “experimental group by the”
as §1, with “in Table 24 are reported” for “in Table 20 are reported”, “experimental group (i.e. 50 mg/kg treatment with ISIS 403102) by the” for “experimental group by the”

murine Factor 7 mRNA [4] = experiment: Single dose pharmacokinetic assay: liver Factor 7 mRNA in BALB/c mice; conditions: single dose 50 mg/kg; for % Inhibition: liver Factor 7 mRNA, BALB/c mice
Method: The half-life and duration of action of ISIS 403102 in mice was evaluated. A group of 27 BALB/c mice was injected with 50 mg/kg of ISIS 403102. Three mice from the group were sacrificed at days 1, 2, 3, 4, 6, 8, 12, 24, and 56 after the single dose of ISIS 403102 was administered. A control group of 3 mice was injected with a single dose of PBS, and mice in this group were sacrificed on day 1. Mice in all groups were sacrificed by cervical dislocation following anesthesia with 150 mg/kg ketamine mixed with 10 mg/kg xylazine administered by intraperitoneal injection. Liver was harvested for RNA analysis and plasma was collected for clotting analysis (PT and aPTT).
RNA was extracted from liver tissue for real-time RT-PCR analysis of Factor 7. Results are presented as percent inhibition of Factor 7, relative to PBS control. […] Results are presented as percent inhibition of Factor 7, relative to control.

[5] = BALB/c mice, 5 mg/kg, relative to PBS treated group
[6] = BALB/c mice, 10 mg/kg, relative to PBS treated group
[7] = BALB/c mice, 25 mg/kg, relative to PBS treated group
[8] = BALB/c mice, 50 mg/kg, 1 dose, 1 day after last dose, relative to PBS group
[9] = BALB/c mice, 50 mg/kg, 1 dose, 3 days after last dose, relative to PBS group
[10] = BALB/c mice, 50 mg/kg, 2 doses, 3 days after last dose, relative to PBS group
[11] = BALB/c mice, 50 mg/kg, 4 doses, 3 days after last dose, relative to PBS group
[12] = BALB/c mice, 50 mg/kg, 6 doses, 2 days after last dose, relative to PBS group
[13] = BALB/c mice, 50 mg/kg, 6 doses, 7 days after last dose, relative to PBS group
[14] = BALB/c mice, 50 mg/kg, 6 doses, 14 days after last dose, relative to PBS group
[15] = BALB/c mice, 50 mg/kg, 6 doses, 28 days after last dose, relative to PBS group
[16] = BALB/c mice, 50 mg/kg, 6 doses, 42 days after last dose, relative to PBS group
[17] = BALB/c mice, 50 mg/kg, 6 doses, 56 days after last dose, relative to PBS group
[18] = BALB/c mice, 50 mg/kg, relative to PBS treated group
[19] = BALB/c mice, single dose 50 mg/kg, day 1
[20] = BALB/c mice, single dose 50 mg/kg, day 2
[21] = BALB/c mice, single dose 50 mg/kg, day 3
[22] = BALB/c mice, single dose 50 mg/kg, day 4
[23] = BALB/c mice, single dose 50 mg/kg, day 6
[24] = BALB/c mice, single dose 50 mg/kg, day 8
[25] = BALB/c mice, single dose 50 mg/kg, day 12
[26] = BALB/c mice, single dose 50 mg/kg, day 24
[27] = BALB/c mice, single dose 50 mg/kg, day 56
[28] = Example 11, 5-50 mg/kg twice a week for 3 weeks
[29] = Example 13, 6 doses, from day 7 to day 56

“CCATAGAACAGCTTCACAGG (sugars from the 5' end e5 d10 e5, backbone and methylation of C not given here) [ISIS 403102]” was tested, and the “PF-4 (percentage of PF-4 as compared to the PBS-treated control groups)” value (platelet factor-4 (PF-4); 1 mg/kg s.c. twice a week for 3 weeks) was 120%, the “PF-4 (percentage of PF-4 as compared to the PBS-treated control groups)” value (platelet factor-4 (PF-4); 3 mg/kg s.c. twice a week for 3 weeks) was 112% and the “aPTT INR” value [1, 5] was 1.05. The “aPTT INR” value [1, 6] was 1.04, the “aPTT INR” value [1, 7] was 1.09 and the “aPTT INR” value [1, 8] was 1.08 INR. For the same sequence, the “aPTT INR” value [1, 9] was 1.10 INR, the “aPTT INR” value [1, 10] was 1.29 INR and the “aPTT INR” value [1, 11] was 1.53 INR. For the same sequence, the “aPTT INR” value [1, 12] was 1.62 INR, the “aPTT INR” value [1, 13] was 1.67 INR and the “aPTT INR” value [1, 14] was 1.25 INR. For the same sequence, the “aPTT INR” value [1, 15] was 0.90 INR, the “aPTT INR” value [1, 16] was 1.00 INR and the “aPTT INR” value [1, 17] was 0.98 INR. The “aPTT INR” value [1, 18] was 1.16, the “aPTT INR” value [1, 19] was 1.00 and the “aPTT INR” value [1, 20] was 1.05. The “aPTT INR” value [1, 21] was 1.24, the “aPTT INR” value [1, 22] was 1.15 and the “aPTT INR” value [1, 23] was 1.23. The “aPTT INR” value [1, 24] was 1.18, the “aPTT INR” value [1, 25] was 1.18 and the “aPTT INR” value [1, 26] was 1.02. For the same sequence, the “aPTT INR” value [1, 27] was 0.97, the “aPTT compared to the control” value [1, 28] was “slightly prolonged” and the aPTT [1, 29] was “decreased”. For the same sequence, the “aPTT INR” value ([1]; single dose 50 mg/kg, day 4) was 1.24, the “aPTT INR” value ([1]; single dose 50 mg/kg, day 56) was 0.97 and the “aPTT INR” value ([1]; single dose 50 mg/kg, starting value before the rise to day 4) was 1.00. The “% inhibition of murine Factor 7 mRNA” value (murine Factor 7 mRNA [2]; 5 mg/kg subcutaneously twice a week for 3 weeks, relative to PBS control) was 64%, the “% inhibition of murine Factor 7 mRNA” value (murine Factor 7 mRNA [2]; 10 mg/kg subcutaneously twice a week for 3 weeks) was 84% and the “% inhibition of murine Factor 7 mRNA” value (murine Factor 7 mRNA [2]; 25 mg/kg subcutaneously twice a week for 3 weeks) was 96%. For the same sequence, the “% inhibition of murine Factor 7 mRNA” value (murine Factor 7 mRNA [2]; 50 mg/kg subcutaneously twice a week for 3 weeks) was 99%, the “reduction of murine Factor 7 mRNA over the PBS control” value (murine Factor 7 mRNA [2]; 5-50 mg/kg twice a week for 3 weeks) was “dose-dependent reduction of murine Factor 7” and the “PT INR” value [3, 5] was 1.09. For the same sequence, the “PT INR” value [3, 6] was 1.33, the “PT INR” value [3, 7] was 2.33 and the “PT INR” value [3, 8] was 1.04 INR. For the same sequence, the “PT INR” value [3, 9] was 1.20 INR, the “PT INR” value [3, 10] was 1.43 INR and the “PT INR” value [3, 11] was 2.13 INR. For the same sequence, the “PT INR” value [3, 12] was 1.64 INR, the “PT INR” value [3, 13] was 2.08 INR and the “PT INR” value [3, 14] was 1.37 INR. The “PT INR” value [3, 15] was 0.96 INR, the “PT INR” value [3, 16] was 1.00 INR and the “PT INR” value [3, 17] was 0.99 INR. For the same sequence, the “PT INR” value [3, 18] was 4.37, the “PT INR” value [3, 19] was 1.11 and the “PT INR” value [3, 20] was 1.64. For the same sequence, the “PT INR” value [3, 21] was 1.81, the “PT INR” value [3, 22] was 1.97 and the “PT INR” value [3, 23] was 1.59. The “PT INR” value [3, 24] was 1.55, the “PT INR” value [3, 25] was 1.30 and the “PT INR” value [3, 26] was 1.12. The “PT INR” value [3, 27] was 1.10, the “PT compared to the control” value [3, 28] was “significantly prolonged” and the PT [3, 29] was “decreased”. For the same sequence, the “PT INR” value ([3]; single dose 50 mg/kg, day 1) was 1.11, the “PT INR” value ([3]; single dose 50 mg/kg, day 4) was 1.97 and the “PT INR” value ([3]; single dose 50 mg/kg, day 56) was 1.10. The “% Inhibition” value (murine Factor 7 mRNA [4]; day 1, relative to PBS control) was 61%, the “% Inhibition” value (murine Factor 7 mRNA [4]; day 2, relative to PBS control) was 87% and the “% Inhibition” value (murine Factor 7 mRNA [4]; day 3, relative to PBS control) was 92%. For the same sequence, the “% Inhibition” value (murine Factor 7 mRNA [4]; day 4, relative to PBS control) was 92%, the “% Inhibition” value (murine Factor 7 mRNA [4]; day 6, relative to PBS control) was 86% and the “% Inhibition” value (murine Factor 7 mRNA [4]; day 8, relative to PBS control) was 80%. The “% Inhibition” value (murine Factor 7 mRNA [4]; day 12, relative to PBS control) was 72%, the “% Inhibition” value (murine Factor 7 mRNA [4]; day 24, relative to PBS control) was 11% and the “% Inhibition” value (murine Factor 7 mRNA [4]; day 56, relative to PBS control) was 0%. The duration of action (murine Factor 7 mRNA [4]) was “at least 24 days”, the peak effect (murine Factor 7 mRNA [4]) was ~4 days and the “inhibition of Factor 7 mRNA” value (murine Factor 7 mRNA [4]; day 4) was 92%. For the same sequence, the “inhibition of Factor 7 mRNA” value (murine Factor 7 mRNA [4]; day 24) was 11% and the “Factor 7 mRNA levels” value (murine Factor 7 mRNA [4]; day 56) was “equal to that of the PBS control”.
